US20220016277A1, “MACROCYCLIC COMPLEXES OF RADIONUCLIDES AND THEIR USE IN RADIOTHERAPY OF CANCER” (Cornell University, priority 2018, published 2022)

Test: Organ distribution of ^225Ac complexes following intravenous injection in mice
Format: in vivo, C57BL/6 mice
Description: In Vivo Biodistribution of ^225Ac Complexes of Macropa and DOTA. All experiments were approved by the Institutional Animal Care Committee (IACC) of the University of British Columbia and were performed in accordance with the Canadian Council on Animal Care Guidelines. A total of 9 female C57BL/6 mice (6-8 weeks old, 20-25 g) were used for the biodistribution study of each radiometal complex, n=3 for each time point.
Macropa (100 μL of a 1 mg/mL solution in NH4OAc) was diluted with 387 μL of NH4OAc (1 M, pH 7), and an aliquot (203 μL) of ^225Ac(NO3)3 (˜157 kBq) was then added; the pH of this solution was adjusted to 6.5-7 by the addition of 1 M NaOH (210 μL, trace metal grade). After 5 min at ambient temperature, the reaction solution was analyzed by TLC (0.4 M pH 4 sodium citrate as the eluent), which confirmed >95% radiochemical yield. The reaction was allowed to proceed overnight, and the radiochemical yield was again confirmed to be >95% the following morning. At this time, mice were anesthetized by 2% isoflurane, and approximately 100 μL (10-15 kBq) of the [^225Ac(macropa)]^+ complex were injected into the tail vein of each mouse. After injection, mice were allowed to recover and roam freely in their cages, and were euthanized by CO2 inhalation at 15 min, 1 h, or 5 h (n=3 at each time point) post-injection. Blood was collected by cardiac puncture and placed into an appropriate test tube for scintillation counting. Tissues collected included heart, liver, kidneys, lungs, small intestine, large intestine, brain, bladder, spleen, stomach, pancreas, bone, thyroid, tail, urine, and feces. Tissues were weighed and then counted with a calibrated gamma counter (Packard, Cobra II model 5002) using three energy windows: 60-120 keV (window A), 180-260 keV (window B), and 400-480 keV (window C). Counting was performed both immediately after sacrifice and after 7 days; counts were decay corrected from the time of injection and then converted to the percentage of injected dose (% ID) per gram of tissue (% ID/g). […]
The biodistribution studies of [^225Ac(DOTA)]^− and ^225Ac(NO3)3 were carried out as described above for [^225Ac(macropa)]^+, with the following modifications. [^225Ac(DOTA)^− was prepared by adding ^225Ac(NO3)3 (338 μL, 1.1 MBq) to a solution of DOTA (100 μg, 20 mg/mL in H2O) in NH4OAc (467 μL, 0.15 M, pH 7). The pH of the solution was adjusted to 7 using NH4OAc (150 μL, 1 M, pH 7) and the solution was heated at 85° C. for 45 min. RCY >99% was confirmed by TLC as described above. [^225Ac(DOTA)]^− was diluted with saline to a final concentration of 0.05 MBq/100 μL, and 100 μL were injected into each mouse. ^225Ac(NO3)3 (˜58 μL, 0.4 MBq) was diluted and injected in the same manner as [^225Ac(DOTA)]^−. One mouse that was to be euthanized at the 5 h time point in the [^225Ac(DOTA)]^− study died shortly after injection. In the same manner, one mouse that was to be euthanized at the 1 h time point in the ^225Ac(NO3)3 study died.
The in vivo stability [^225Ac(macropa)]^+ was examined by comparing its biodistribution to those of ^225Ac(NO3)3 and [^225Ac(DOTA)]^−. C57BL/6 mice were injected via tail vein with 10-50 kBq of each radiometal complex and were sacrificed after 15 min, 1 h, or 5 h. The amount of ^225Ac retained in each organ was quantified by gamma counting and reported as the percent of injected dose per gram of tissue (% ID/g). The results of these studies are compiled in Tables 1-3. Inadequate stability of an ^225Ac complex leading to the loss of radioisotope in vivo is manifested by the accumulation of ^225Ac in the liver, spleen, and bone of mice.^[11,12,32] […] The biodistribution profile of [^225Ac(macropa)]^+ (FIG. 3B) differs markedly from that of ^225Ac(NO3)3. […] Its biodistribution profile was similar to that of [^225Ac(DOTA)]^− (FIG. 3C), which has been previously shown to retain ^225Ac^3+ in vivo.^[7]

[1] = 15 min post i.v. injection, energy window A (60-120 keV)
[2] = 15 min post i.v. injection, energy window B (180-260 keV)
[3] = 15 min post i.v. injection, energy window C (400-480 keV)
[4] = 1 h post i.v. injection, energy window A (60-120 keV)
[5] = 1 h post i.v. injection, energy window B (180-260 keV)
[6] = 1 h post i.v. injection, energy window C (400-480 keV)
[7] = 5 h post i.v. injection, energy window A (60-120 keV)
[8] = 5 h post i.v. injection, energy window B (180-260 keV)

O=C([O-])CN1CCN(CC(=O)[O-])CCN(CC(=O)[O-])CCN(CC(=O)[O-])CC1.[225Ac+3] [[^225Ac(DOTA)]^−]
Organ distribution: bladder [1]: 48.2703 % ID/g | Organ distribution: blood [1]: 5.2881 % ID/g | Organ distribution: bone (femur + joint) [1]: 2.6298 % ID/g | Organ distribution: brain [1]: 0.2655 % ID/g | Organ distribution: feces [1]: 6.2730 % ID/g | Organ distribution: heart [1]: 2.3335 % ID/g | Organ distribution: kidneys [1]: 27.6566 % ID/g | Organ distribution: large intestines [1]: 2.3348 % ID/g | Organ distribution: liver [1]: 2.2520 % ID/g | Organ distribution: lungs [1]: 5.7556 % ID/g | Organ distribution: pancreas [1]: 1.5090 % ID/g | Organ distribution: small intestines [1]: 2.6370 % ID/g | Organ distribution: spleen [1]: 2.5905 % ID/g | Organ distribution: stomach [1]: 2.7440 % ID/g | Organ distribution: tail [1]: 8.8606 % ID/g | Organ distribution: thyroids [1]: −5.7725 % ID/g | Organ distribution: urine [1]: 1467.9186 % ID/g | Organ distribution: bladder [2]: 54.4696 % ID/g | Organ distribution: blood [2]: 5.6357 % ID/g | Organ distribution: bone (femur + joint) [2]: 3.0357 % ID/g | Organ distribution: brain [2]: 0.2735 % ID/g | Organ distribution: feces [2]: 1.0222 % ID/g | Organ distribution: heart [2]: 2.7276 % ID/g | Organ distribution: kidneys [2]: 28.0858 % ID/g | Organ distribution: large intestines [2]: 2.5365 % ID/g | Organ distribution: liver [2]: 2.1817 % ID/g | Organ distribution: lungs [2]: 6.0147 % ID/g | Organ distribution: pancreas [2]: 1.4929 % ID/g | Organ distribution: small intestines [2]: 2.5009 % ID/g | Organ distribution: spleen [2]: 2.9076 % ID/g | Organ distribution: stomach [2]: 2.7311 % ID/g | Organ distribution: tail [2]: 9.4746 % ID/g | Organ distribution: thyroids [2]: 1.6601 % ID/g | Organ distribution: urine [2]: 1635.4394 % ID/g | Organ distribution: bladder [3]: 76.0987 % ID/g | Organ distribution: blood [3]: 7.2941 % ID/g | Organ distribution: bone (femur + joint) [3]: 4.4224 % ID/g | Organ distribution: brain [3]: 0.1588 % ID/g | Organ distribution: feces [3]: 1.5693 % ID/g | Organ distribution: heart [3]: 2.5579 % ID/g | Organ distribution: kidneys [3]: 40.4489 % ID/g | Organ distribution: large intestines [3]: 3.8419 % ID/g | Organ distribution: liver [3]: 2.9046 % ID/g | Organ distribution: lungs [3]: 7.3872 % ID/g | Organ distribution: pancreas [3]: 1.0290 % ID/g | Organ distribution: small intestines [3]: 3.8916 % ID/g | Organ distribution: spleen [3]: 1.5598 % ID/g | Organ distribution: stomach [3]: 3.2425 % ID/g | Organ distribution: tail [3]: 13.4731 % ID/g | Organ distribution: thyroids [3]: −109.5394 % ID/g | Organ distribution: urine [3]: 2691.0615 % ID/g | Organ distribution: bladder [4]: 4.7351 % ID/g | Organ distribution: blood [4]: 0.1144 % ID/g | Organ distribution: bone (femur + joint) [4]: 0.4487 % ID/g | Organ distribution: brain [4]: 0.0224 % ID/g | Organ distribution: feces [4]: 0.2035 % ID/g | Organ distribution: heart [4]: 0.1012 % ID/g | Organ distribution: kidneys [4]: 1.4020 % ID/g | Organ distribution: large intestines [4]: 0.1229 % ID/g | Organ distribution: liver [4]: 0.2715 % ID/g | Organ distribution: lungs [4]: 0.1555 % ID/g | Organ distribution: pancreas [4]: 0.0743 % ID/g | Organ distribution: small intestines [4]: 1.7207 % ID/g | Organ distribution: spleen [4]: 0.0938 % ID/g | Organ distribution: stomach [4]: 0.1367 % ID/g | Organ distribution: tail [4]: 0.8091 % ID/g | Organ distribution: thyroids [4]: 2.3564 % ID/g | Organ distribution: urine [4]: 158.6102 % ID/g | Organ distribution: bladder [5]: 4.7141 % ID/g | Organ distribution: blood [5]: 0.1127 % ID/g | Organ distribution: bone (femur + joint) [5]: 0.4126 % ID/g | Organ distribution: brain [5]: 0.0248 % ID/g | Organ distribution: feces [5]: 0.2349 % ID/g | Organ distribution: heart [5]: 0.1378 % ID/g | Organ distribution: kidneys [5]: 1.2560 % ID/g | Organ distribution: large intestines [5]: 0.0813 % ID/g | Organ distribution: liver [5]: 0.2672 % ID/g | Organ distribution: lungs [5]: 0.1946 % ID/g | Organ distribution: pancreas [5]: 0.0746 % ID/g | Organ distribution: small intestines [5]: 1.8809 % ID/g | Organ distribution: spleen [5]: 0.0825 % ID/g | Organ distribution: stomach [5]: 0.1379 % ID/g | Organ distribution: tail [5]: 0.8973 % ID/g | Organ distribution: thyroids [5]: 2.6514 % ID/g | Organ distribution: urine [5]: 159.1628 % ID/g | Organ distribution: bladder [6]: 6.9149 % ID/g | Organ distribution: blood [6]: 0.1102 % ID/g | Organ distribution: bone (femur + joint) [6]: 0.5654 % ID/g | Organ distribution: brain [6]: 0.0380 % ID/g | Organ distribution: feces [6]: 0.4091 % ID/g | Organ distribution: heart [6]: 0.2857 % ID/g | Organ distribution: kidneys [6]: 1.4787 % ID/g | Organ distribution: large intestines [6]: 0.1381 % ID/g | Organ distribution: liver [6]: 0.2841 % ID/g | Organ distribution: lungs [6]: 0.2551 % ID/g | Organ distribution: pancreas [6]: 0.1730 % ID/g | Organ distribution: small intestines [6]: 2.0201 % ID/g | Organ distribution: spleen [6]: 0.2228 % ID/g | Organ distribution: stomach [6]: 0.1720 % ID/g | Organ distribution: tail [6]: 1.0280 % ID/g | Organ distribution: thyroids [6]: 3.5247 % ID/g | Organ distribution: urine [6]: 177.6788 % ID/g | Organ distribution: bladder [7]: 0.3551 % ID/g | Organ distribution: blood [7]: 0.0140 % ID/g | Organ distribution: bone (femur + joint) [7]: 0.2063 % ID/g | Organ distribution: brain [7]: 0.0213 % ID/g | Organ distribution: feces [7]: 5.5318 % ID/g | Organ distribution: heart [7]: 0.0664 % ID/g | Organ distribution: kidneys [7]: 0.6172 % ID/g | Organ distribution: large intestines [7]: 0.2026 % ID/g | Organ distribution: liver [7]: 0.1010 % ID/g | Organ distribution: lungs [7]: 0.0390 % ID/g | Organ distribution: pancreas [7]: 0.0677 % ID/g | Organ distribution: small intestines [7]: 0.0967 % ID/g | Organ distribution: spleen [7]: 0.1380 % ID/g | Organ distribution: stomach [7]: 0.0852 % ID/g | Organ distribution: tail [7]: 0.3057 % ID/g | Organ distribution: thyroids [7]: 3.6425 % ID/g | Organ distribution: urine [7]: 1.1612 % ID/g | Organ distribution: bladder [8]: 0.7521 % ID/g | Organ distribution: blood [8]: 0.0292 % ID/g | Organ distribution: bone (femur + joint) [8]: 0.1478 % ID/g | Organ distribution: brain [8]: 0.0513 % ID/g | Organ distribution: feces [8]: 3.3534 % ID/g | Organ distribution: heart [8]: 0.0879 % ID/g | Organ distribution: kidneys [8]: 0.6718 % ID/g | Organ distribution: large intestines [8]: 0.2527 % ID/g | Organ distribution: liver [8]: 0.2712 % ID/g | Organ distribution: lungs [8]: 0.1289 % ID/g | Organ distribution: pancreas [8]: 0.1266 % ID/g | Organ distribution: small intestines [8]: 0.2065 % ID/g | Organ distribution: spleen [8]: 0.0834 % ID/g | Organ distribution: stomach [8]: 0.1789 % ID/g | Organ distribution: tail [8]: 0.1634 % ID/g | Organ distribution: thyroids [8]: 16.2357 % ID/g | Organ distribution: urine [8]: 3.6967 % ID/g
